Laboratory results: patent US8592181B2, “Brazzein variant having higher sweetness and method for preparing multi-variant” (Chung-Ang University Industry-Academy Cooperation Foundation, priority 2009, dated 2013)

System: human sense of taste
Test: Sweetness measured by human sense of taste (20 trained subjects, minimum concentration at which sweetness is first sensed)
Assay type: in vivo
Settings: for Multiples of increased sweetness to minor-type brazzein: relative to minor-type brazzein; for Minimum stimulation level in which one senses sweetness for first time: 20 trained subjects; for Sweetness ratios of sucrose (1 g/100 ml) to primary brazzein variants (minor-type brazzein: 2000) / Sweetness ratios of sucrose (1 g/100 ml) to brazzein multi-variants: relative to 1 g/100 ml sucrose threshold
Description: Since the recombinant brazzein according to the present invention is not a sucrose-based compound having a cyclic ring, the sweetness of the recombinant brazzein was not measured using a saccharometer. Therefore, the activity of the recombinant brazzein was measured using the human sense of taste. Sugar content measurement was performed on 20 subjects who were trained to feel substantially the same minimum concentration of sucrose in which they could sense sweetness using a sucrose solution. That is, a concentration of each brazzein variant in which the subjects could sense sweetness for the first time was measured. Also, a sweetness ratio of the sucrose solution to the wild-type brazzein was 1 g/100 ml, which was a minimum stimulation level in which the subjects could sense sweetness. Also, a sweetness ratio of the minor-type brazzein protein to the wild-type brazzein was 500 μg/100 ml, which was a minimum stimulation level in which the subjects could sense sweetness. Therefore, the sweetness was calculated using the sweetness ratios (That is, 1/0.0005=2000 for the minor-type brazzein).
Also, the brazzein multi-variants were measured for activity (sweetness) in the same manner as in Example 3-1.

Molecule	Multiples of increased sweetness to minor-type brazzein (primary brazzein variants)	Minimum stimulation level in which one senses sweetness for first time (primary brazzein variants)	Sweetness ratios of sucrose (1 g/100 ml) to primary brazzein variants (minor-type brazzein: 2000)	Multiples of increased sweetness to minor-type brazzein (brazzein multi-variants)	Sweetness ratios of sucrose (1 g/100 ml) to brazzein multi-variants	Minimum stimulation level in which the subjects could sense sweetness (sucrose solution) [g/100 ml]
E35H: primary brazzein variant: Glu at position 35 of minor-type brazzein substituted with His (DKCKKVYENYPVSKCQLANQCNYDCKLRKHARSGHCFYDEKRNLQCICDYCEY; Brazzein(E35H)) [Brazzein E35H]	0.08	6,000 μg/100 ml	167	–	–	–
R32E: primary brazzein variant: Arg at position 32 of minor-type brazzein substituted with Glu (DKCKKVYENYPVSKCQLANQCNYDCKLRKHAESGECFYDEKRNLQCICDYCEY; Brazzein(R32E)) [Brazzein R32E]	0.05	10,000 μg/100 ml	100	–	–	–
E35D_E40D: secondary brazzein variant of minor-type brazzein with substitutions E35D and E40D (DKCKKVYENYPVSKCQLANQCNYDCKLRKHAKSGDCFYDDKRNLQCICDYCEY; Brazzein(E35D_E40D)) [Brazzein E35D_E40D]	–	–	–	5	10,000	–
K29R: primary brazzein variant: Lys at position 29 of minor-type brazzein substituted with Arg (DKCKKVYENYPVSKCQLANQCNYDCKLRRHARSGECFYDEKRNLQCICDYCEY; Brazzein(K29R)) [Brazzein K29R]	0.05	10,000 μg/100 ml	100	–	–	–
R42A: primary brazzein variant: Arg at position 42 of minor-type brazzein substituted with Ala (DKCKKVYENYPVSKCQLANQCNYDCKLRKHARSGECFYDEKANLQCICDYCEY; Brazzein(R42A)) [Brazzein R42A]	0.05	10,000 μg/100 ml	100	–	–	–
H30D: primary brazzein variant: His at position 30 of minor-type brazzein substituted with Asp (DKCKKVYENYPVSKCQLANQCNYDCKLRKDARSGECFYDEKRNLQCICDYCEY; Brazzein(H30D)) [Brazzein H30D]	0.16	3,000 μg/100 ml	334	–	–	–
R42E: primary brazzein variant: Arg at position 42 of minor-type brazzein substituted with Glu (DKCKKVYENYPVSKCQLANQCNYDCKLRKHARSGECFYDEKENLQCICDYCEY; Brazzein(R42E)) [Brazzein R42E]	0.05	10,000 μg/100 ml	100	–	–	–
OC[C@H]1O[C@@](CO)(O[C@H]2O[C@H](CO)[C@@H](O)[C@H](O)[C@H]2O)[C@@H](O)[C@@H]1O [sucrose, reference compound]	–	–	–	–	–	1
R42K: primary brazzein variant: Arg at position 42 of minor-type brazzein substituted with Lys (DKCKKVYENYPVSKCQLANQCNYDCKLRKHARSGECFYDEKKNLQCICDYCEY; Brazzein(R42K)) [Brazzein R42K]	0.16	3,000 μg/100 ml	334	–	–	–
E35D_E40A: secondary brazzein variant of minor-type brazzein with substitutions E35D and E40A (DKCKKVYENYPVSKCQLANQCNYDCKLRKHAKSGDCFYDAKRNLQCICDYCEY; Brazzein(E35D_E40A)) [Brazzein E35D_E40A]	–	–	–	5	10,000	–
E35R: primary brazzein variant: Glu at position 35 of minor-type brazzein substituted with Arg (DKCKKVYENYPVSKCQLANQCNYDCKLRKHARSGRCFYDEKRNLQCICDYCEY; Brazzein(E35R)) [Brazzein E35R]	0.08	6,000 μg/100 ml	167	–	–	–
E35K: primary brazzein variant: Glu at position 35 of minor-type brazzein substituted with Lys (DKCKKVYENYPVSKCQLANQCNYDCKLRKHARSGKCFYDEKRNLQCICDYCEY; Brazzein(E35K)) [Brazzein E35K]	0.08	6,000 μg/100 ml	167	–	–	–
E35A: primary brazzein variant: Glu at position 35 of minor-type brazzein substituted with Ala (DKCKKVYENYPVSKCQLANQCNYDCKLRKHARSGACFYDEKRNLQCICDYCEY; Brazzein(E35A)) [Brazzein E35A]	0.05	10,000 μg/100 ml	100	–	–	–
K29E: primary brazzein variant: Lys at position 29 of minor-type brazzein substituted with Glu (DKCKKVYENYPVSKCQLANQCNYDCKLREHARSGECFYDEKRNLQCICDYCEY; Brazzein(K29E)) [Brazzein K29E]	0.05	10,000 μg/100 ml	100	–	–	–
H30E: primary brazzein variant: His at position 30 of minor-type brazzein substituted with Glu (DKCKKVYENYPVSKCQLANQCNYDCKLRKEARSGECFYDEKRNLQCICDYCEY; Brazzein(H30E)) [Brazzein H30E]	0.16	3,000 μg/100 ml	334	–	–	–
H30R_E40R: secondary brazzein variant of minor-type brazzein with substitutions H30R and E40R (DKCKKVYENYPVSKCQLANQCNYDCKLRKRAKSGECFYDRKRNLQCICDYCEY; Brazzein(H30R_E40R)) [Brazzein H30R_E40R]	–	–	–	5	10,000	–
